PMC10609270 (Molecules, 2023)
“Also recorded” adds a separate entry of the source. Where two headings read alike, the source gives them in different places.

How the values were obtained:
in vitro = conditions: African green monkey
spike protein = assay type: cell-based, SARS-CoV-2
Vero CCL-81 cells [1] = system: Vero CCL-81 cells
ACE2 [2] = test: ACE2 expression levels in MDA-MB-231 cells (Western blot); assay type: cell-based, human; conditions: 10 μM, 48 h
Description: For protein expression analysis, MDA-MB-231 and Vero CCL-81 cells were seeded in 6-well plates and incubated for 24 h. Then, the cells were treated with the tested compounds at 10 μM or at their respective IC50. Cell pellets were collected after 48 h incubation, and the following lysis, quantification, and Western Blot procedures were performed as previously described, except for the following points: (i) no phosphatase inhibitor was used; (ii) a total of 15 μg of protein lysates obtained from MDA-MB-231 cells treatment or 50 μg of protein lysates obtained from Vero CCL-81 cells were loaded and separated in 10% SDS-Page gels; (iii) the transference to a nitrocellulose membrane (GE Healthcare Life science, Chalfont St Giles, UK; GE10600002) occurred for 1 h 45 min at 100 V; (iv) the primary antibodies (1:2000) used were: mouse anti-ACE2 monoclonal antibody (CL4035; Thermo Fischer Scientific; Waltham, MA, USA) and mouse anti-actin (sc-47778; Santa Cruz Biotechnology, Dallas, TX, USA).

ACE2 [3] = assay type: cell-based, African green monkey; conditions: compounds at IC50 (50 μM for 9); for ACE2 levels compared to vehicle: infected Vero CCL-81, Western blot; for ACE2 Levels (Vero CCL-81 Monkey Cells): infected cells
A549 cells = test: Sulforhodamine B (SRB) cytotoxicity assay in A549 cells; assay type: cell-based, human; conditions: for Cytotoxicity in A549 human lung cells: 48 h, SRB, five serial dilutions
Description: (§1) To determine the cytotoxic effect of the tested compounds, the SRB assay was performed according to the previously described protocols. The concentration of each compound that caused 50% of cell growth inhibition (GI50) was determined from the dose response curve. A549 cells were plated in 96-well plates at a previously determined optimal cell concentration (5 × 10^4 cells/mL) and incubated for 24 h. Then, cells were treated with different concentrations of the tested compounds for 48 h. The following procedure was accomplished as previously described. Using the Gen5^TM software (version 1.04.5), the absorbance was measured at 510 nm in a multiplate reader (Synergy^TM Mx, Biotek Instruments Inc., Winooski, VT, USA).

SARS-CoV-2 [4] = test: microbe, parasite or virus in culture; assay type: cell-based
Vero CCL-81 cells [5] = test: cells; assay type: cell-based, African green monkey; conditions: non-infected Vero CCL-81, 48 h; for IC50: Chlorocebus sabaeus, DAPI, read-out: IC50 (ñ inf), relative cell nucleus number
SARS-CoV-2 [6] = assay type: cell-based
[7] = Sulforhodamine B (SRB) cytotoxicity assay in A549 cells; assay type: cell-based, human; conditions: human, A549 cells; SRB assay, 48 h; read-out: Cytotoxic IC50 (A549 Human Lung Cells)
Description: as §1

Vero CCL-81 cells [8] = test: cells; conditions: Chlorocebus sabaeus, 48 h, read-out: IC50 (inf), relative cell nucleus number
[9] = Severe acute respiratory syndrome coronavirus 2, in Primates, 48 h, read-out: Antiviral IC50 (Vero CCL-81 Monkey Cells)
[10] = Homo sapiens, A549, 48 h, read-out: GI50 (concentration that inhibits 50% of cell growth), A549, 48 h, SRB assay

SMILES	Levels of spike protein compared to vehicle (spike protein)	Cytotoxicity in infected Vero CCL-81 cells (number of cell nuclei) (Vero CCL-81 cells [1])	ACE2 levels compared to vehicle (ACE2 [3])	ACE2 Levels (Vero CCL-81 Monkey Cells) (ACE2 [3])	IC50 (SARS-CoV-2 [4]; [9]) [µM]	Viral titer (SARS-CoV-2 [6])	Effect on cell infection by SARS-CoV-2 (SARS-CoV-2 [4])	Relative cell number of non-infected cells (Vero CCL-81 cells [5])	also measured
Cc1ccnc(NS(=O)(=O)c2ccc(NC3c4ccccc4Oc4ccccc43)cc2)n1 [Compound 1]	significantly decreased	some cytotoxicity	did not alter ACE2 expression significantly	−	12.6	1.4 × 10^3 FFU/mL			IC50 (in vitro): 18.4 µM; ACE2 expression levels in MDA-MB-231 cells (ACE2 [2]): did not significantly affect; Cytotoxicity in A549 human lung cells (A549 cells): did not exhibited cytotoxicity at the tested concentrations; GI50 (concentration that inhibits 50% of cell growth) (A549 cells; A549, 48 h, SRB assay): not reached with the concentrations tested; IC50 (Vero CCL-81 cells [5]): 28.9 µM
Cc1cc(C)nc(NS(=O)(=O)c2ccc(NC3c4ccccc4Oc4ccccc43)cc2)n1 [Compound 2]	significantly decreased	some cytotoxicity	did not alter ACE2 expression significantly	−	11.9	1.7 × 10^3 FFU/mL			IC50 (in vitro): 17.2 µM; ACE2 expression levels in MDA-MB-231 cells (ACE2 [2]): did not significantly affect; GI50 (A549 cells; [10]): 31.9 µM; IC50 at 48 h [7]: 31.9 µM; IC50 (Vero CCL-81 cells [5]): 19.8 µM
O=C(NC1c2ccccc2Oc2ccccc21)N(O)C1c2ccccc2Oc2ccccc21 [Compound 3]		significantly higher cytotoxicity in infected cells compared to non-infected cells					did not inhibit cell infection	increased the relative cell number of non-infected cells	
C[C@H](CCC(=O)N1CCOCC1)[C@H]1CC[C@H]2[C@@H]3CC[C@@H]4C[C@H](O)CC[C@]4(C)[C@H]3C[C@H](O)[C@]12C [Compound 4]	significantly decreased		did not alter ACE2 expression significantly	−	24.1	1.5 × 10^3 FFU/mL		increased the relative cell number of non-infected cells	ACE2 expression levels in MDA-MB-231 cells (ACE2 [2]): did not significantly affect; GI50 (A549 cells; A549, 48 h, SRB assay, read-out: GI50 (concentration that inhibits 50% of cell growth)): 19.8 µM; GI50 (A549 cells; [10]): 19.8 µM; IC50 at 48 h [7]: 19.8 µM
Nc1cccc2c1CCN(c1ccc3c(=O)c4ccc(N5CCc6c(N)cccc6C5)cc4oc3c1)C2 [Compound 5]							did not inhibit cell infection		
O=c1c2ccc(OCc3cn(C4OC(CO)C(O)C(O)C4O)nn3)cc2oc2cc(OCc3cn(C4OC(CO)C(O)C(O)C4O)nn3)ccc12 (stereo not shown) [Compound 6]							did not inhibit cell infection		
O=c1c2ccc(OCc3cn(C4OC(COS(=O)(=O)O)C(OS(=O)(=O)O)C(OS(=O)(=O)O)C4OS(=O)(=O)O)nn3)cc2oc2cc(OCc3cn(C4OC(COS(=O)(=O)O)C(OS(=O)(=O)O)C(OS(=O)(=O)O)C4OS(=O)(=O)O)nn3)ccc12 (stereo not shown) [Compound 7]	did not cause any significant change	without causing cytotoxicity	slight decrease; also recorded: did not alter ACE2 expression significantly	−	31.7	6.1 × 10^3 FFU/mL		increased the relative cell number of non-infected cells	Cytotoxicity in A549 human lung cells (A549 cells): did not exhibited cytotoxicity at the tested concentrations; Viral Titer and Spike Levels (Vero CCL-81 Monkey Cells) (SARS-CoV-2 [6]): −
O=c1c2ccccc2oc2c(O)c(OC3OC(COS(=O)(=O)O)C(OS(=O)(=O)O)C(OS(=O)(=O)O)C3OS(=O)(=O)O)ccc12 (stereo not shown) [Compound 8]							did not inhibit cell infection		
O=c1c2ccc(OCc3cn(C4OC(COS(=O)(=O)O)C(OS(=O)(=O)O)C(OS(=O)(=O)O)C4OS(=O)(=O)O)nn3)cc2oc2cc(OCc3cn(C4OC(COS(=O)(=O)O)C(OS(=O)(=O)O)C(OS(=O)(=O)O)C4OS(=O)(=O)O)nn3)ccc12 (stereo not shown) [Compound 9]	did not cause any significant change	without causing cytotoxicity	did not alter ACE2 expression significantly	−		7.0 × 10^3 FFU/mL	reduced cell infection	increased the relative cell number of non-infected cells	Cytotoxicity in A549 human lung cells (A549 cells): did not exhibited cytotoxicity at the tested concentrations; IC50(viral), relative number of infected cells (SARS-CoV-2 [4]): not reached at the tested concentrations; Viral Titer and Spike Levels (Vero CCL-81 Monkey Cells) (SARS-CoV-2 [6]): −
O=c1c2ccc(NCc3ccccc3)cc2oc2cc(OS(=O)(=O)C(F)(F)F)ccc12 [Compound 10]							did not inhibit cell infection	increased the relative cell number of non-infected cells	
Cc1ccc(C(=O)Nc2ccc(CN3CCN(C)CC3)c(C(F)(F)F)c2)cc1C#Cc1cnc2cccnn12 [Ponatinib, reference compound]		some cytotoxicity					did not inhibit cell infection		IC50 (Vero CCL-81 cells [8]): 0.7 µM; IC50 (SARS-CoV-2 [4]; Severe acute respiratory syndrome coronavirus 2, 48 h, read-out: IC50(viral), relative number of infected cells): 0.93 µM; IC50 (Vero CCL-81 cells [5]): 1.36 µM
